From US20190045783A1, “SUBSTITUTED IMIDAZOLYLCARBOXAMIDES AS PESTICIDES” (BAYER CROPSCIENCE AKTIENGESELLSCHAFT, priority 2016, published 2019)
Read-outs that look alike come from different tables or passages of the source.

Legend:
[1] = system: green peach aphid (Myzus persicae); assay: Myzus persicae spray test (Chinese cabbage leaf discs); type: in vivo; conditions: for pest or weed control at 500 g/ha: Myzus persicae, foliar, read-out: efficacy in %
Procedure: Myzus persicae—Spray Test
To produce a suitable active ingredient formulation, 1 part by weight of active ingredient is dissolved with the stated parts by weight of solvent and made up with water containing an emulsifier concentration of 1000 ppm until the desired concentration is attained. To produce further test concentrations, the formulation is diluted with emulsifier-containing water.
After 5-6 days, the efficacy in % is determined. 100% means that all the aphids have been killed; 0% means that no aphids have been killed.

[2] = system: green peach aphids (Myzus persicae); assay: Myzus persicae oral test; type: in vivo; conditions: for pest or weed control at 20 ppm: Myzus persicae, 120 h, read-out: efficacy in %
Procedure: Solvent: 100 parts by weight of acetone
Subsequently, the plates are sealed with parafilm, which a mixed population of green peach aphids (Myzus persicae) within a second microtitre plate is able to puncture and imbibe the solution through it.
After 5 days, the efficacy in % is determined. 100% means that all the aphids have been killed; 0% means that no aphids have been killed.

[3] = log P by HPLC on reversed-phase column (C18), EEC directive 79/831 Annex V.A8; type: physicochemical
[4] = application rate 500 g/ha, after 5-6 days, Chinese cabbage leaf discs, 100% = all aphids killed
[5] = application rate 20 ppm, after 5 days, oral, 100% = all aphids killed
[6] = reversed-phase HPLC column (C18), neutral range, pH 7.8, HPLC C18, 43° C., preparation examples, read-out: log P[n]
[7] = neutral range, pH 7.8, HPLC C18, 43° C., preparation examples, read-out: log P[n]

SMILES | logP [n] ([3]; pH 7.8) | efficacy in % [1, 4] [%] | efficacy in % [2, 5] [%] | also measured
CN(C(=O)c1cnc(C2OCCO2)n1C)c1cccnc1 [I-1-002] | 0.73 | 90 | 100 | 
CCN(C(=O)c1cnc(C2OCCO2)n1C)c1cccnc1 [I-1-003] | 0.98 | 90 | 100 | 
CN(C(=O)c1cnc(C=O)n1C)c1cccnc1 [I-1-007, 2-Formyl-N,1-dimethyl-N-(pyridin-3-yl)-1H-imidazole-5-carboxamide] |  |  |  | pest or weed control at 500 g/ha [1]: 100%; pest or weed control at 20 ppm ([2]; po): 100%; chromatographic logP [3, 6]: 0.59
COCC1COC(c2ncc(C(=O)N(C)c3cccnc3)n2C)O1 (centres unmarked) [I-1-009] | 0.95 | 90 | 100 | 
CCC1COC(c2ncc(C(=O)N(C)c3cccnc3)n2C)O1 (centres unmarked) [I-1-011] | 1.3 | 90 | 100 | 
C=CCO/N=C/c1ncc(C(=O)N(C)c2cccnc2)n1C [I-1-012] | 1.55 | 90 | 100 | 
CN(C(=O)c1cnc(/C=N/OCc2ccccn2)n1C)c1cccnc1 [I-1-013] | 1.26 | 100 | 100 | 
CN(C(=O)c1cnc(C2OCC3(CC3)CO2)n1C)c1cccnc1 [I-1-015] | 1.29 | 90 | 100 | 
CN(C(=O)c1cnc(C2COC(C)(C)OC2)n1C)c1cccnc1 [I-1-016, 2-(2,2-Dimethyl-1,3-dioxan-5-yl)-N,1-dimethyl-N-(pyridin-3-yl)-1H-imidazole-5-carboxamide] | 1.48 | 100 | 100 | log P[n] ([3]; pH 7.8): 1.48
COC(=O)N(C)/N=C/c1ncc(C(=O)N(C)c2cccnc2)n1C [I-1-018, Methyl (2E)-1-methyl-2-({1-methyl-5-[methyl(pyridin-3-yl)carbamoyl]-1H-imidazol-2-yl}methylene)hydrazinecarboxylate] |  |  |  | pest or weed control at 500 g/ha [1, 4]: 100%; pest or weed control at 20 ppm [2, 5]: 100%; chromatographic logP [3, 7]: 1.08
CN(C(=O)c1cnc(C2OCCCS2)n1C)c1cccnc1 (centres unmarked) [I-1-022] | 1.13 | 100 | 100 | 
COC(=O)c1ncc(C(=O)N(C)c2cccnc2)n1C [I-1-026, Methyl 1-methyl-5-[methyl(pyridin-3-yl)carbamoyl]-1H-imidazol-2-carboxylate] |  |  |  | pest or weed control at 500 g/ha [1, 4]: 90%; pest or weed control at 20 ppm [2, 5]: 100%; chromatographic logP ([3]; acidic range, pH 2.7, HPLC C18, 43° C., preparation examples, read-out: log P[a]): 0.53; chromatographic logP [3, 7]: 0.84; chromatographic logP ([3]; reversed-phase HPLC column (C18), neutral range, pH 7.8, HPLC C18, 43° C., Table 1, read-out: logP [n]): 0.42
CCCCO/N=C/c1ncc(C(=O)N(C)c2cccnc2)n1C [I-1-027] | 2.08 | 100 | 100 | 
CN(C(=O)c1cnc(/C=N/NC(=O)OCc2ccccc2)n1C)c1cccnc1 [I-1-028] | 1.63 | 90 | 100 | 
CCCCN(/N=C/c1ncc(C(=O)N(C)c2cccnc2)n1C)C(=O)OCC [I-1-029] | 2.06 | 90 | 100 | 
C#CCO/N=C/c1ncc(C(=O)N(C)c2cccnc2)n1C [I-1-035] | 1.83 | 100 | 100 | 
CN(C(=O)c1cnc(/C=N/OCC(C)(C)C)n1C)c1cccnc1 [I-1-036] | 2.22 | 100 | 100 | 
CCN(C(=O)c1cnc(C2OCC(C)(C)CO2)n1C)c1cccnc1 [I-1-040] | 1.61 | 90 | 100 | 
CCN(C(=O)c1cnc(/C=N/OC(C)C)n1C)c1cccnc1 [I-1-041] | 1.81 | 90 | 100 | 
CCN(C(=O)c1cnc(/C=N/OCC2CC2)n1C)c1cccnc1 [I-1-042] | 1.86 | 100 | 100 | 
CCCO/N=C/c1ncc(C(=O)N(CC)c2cccnc2)n1C [I-1-043] | 1.85 | 90 | 100 | 
CCNC(=O)c1ncc(C(=O)N(C)c2cccnc2)n1C [I-1-046, N^2-Ethyl-N^5,1-dimethyl-N^5-(pyridin-3-yl)-1H-imidazole-2,5-dicarboxamide] |  |  |  | pest or weed control at 500 g/ha [1, 4]: 100%; pest or weed control at 20 ppm [2, 5]: 100%; chromatographic logP ([3]; reversed-phase HPLC column (C18), acidic range, pH 2.7, HPLC C18, 43° C., preparation examples, read-out: log P[a]): 0.8; chromatographic logP [3, 6]: 0.97
COCCOC(=O)N/N=C/c1ncc(C(=O)N(C)c2cccnc2)n1C [I-1-049] | 1.26 | 90 | 100 | 
CCO/N=C/c1ncc(C(=O)N(CC)c2cccnc2)n1C [I-1-051] | 1.66 | 100 | 100 | 
CN(C(=O)c1cnc(/C=N/OC2CCCC2)n1C)c1cccnc1 [I-1-052] | 2.14 | 100 | 100 | 
CNC(=O)c1ncc(C(=O)N(C)c2cccnc2)n1C [I-1-061] | 0.7 |  | 100 | 
CC(C)C(=O)c1ncc(C(=O)N(C)c2cccnc2)n1C [I-1-082, 2-Isobutyryl-N,1-dimethyl-N-(pyridin-3-yl)-1H-imidazole-5-carboxamide] |  |  |  | pest or weed control at 500 g/ha [1, 4]: 100%; chromatographic logP [3, 6]: 1.55
CCC(=O)c1ncc(C(=O)N(C)c2cccnc2)n1C [I-1-086] | 1.23 | 90 |  | 
CN(C(=O)c1cncn1C)c1cccnc1 [N,1-Dimethyl-N-(pyridin-3-yl)-1H-imidazole-5-carboxamide] |  |  |  | chromatographic logP [3, 6]: 0.44

Further lines, with some results ahead:

logP [n] ([3]; pH 7.8) | SMILES | efficacy in % [1, 4] [%] | efficacy in % [2, 5] [%] | also measured
1.1 | CO/N=C/c1ncc(C(=O)N(C)c2cccnc2)n1C [I-1-001] | 90 | 100 | 
1.41 | CCO/N=C/c1ncc(C(=O)N(C)c2cccnc2)n1C [I-1-004] | 90 | 100 | 
1.7 | CC(C)O/N=C/c1ncc(C(=O)N(C)c2cccnc2)n1C [I-1-005] | 100 | 100 | 
1.02 | CC1COC(c2ncc(C(=O)N(C)c3cccnc3)n2C)O1 (centres unmarked) [I-1-014] | 100 | 100 | 
1.06 | CCOC(=O)N/N=C/c1ncc(C(=O)N(C)c2cccnc2)n1C [I-1-017] | 100 | 100 | 
1.33 | CCOC(=O)N(C)/N=C/c1ncc(C(=O)N(C)c2cccnc2)n1C [I-1-019] | 90 | 100 | 
1.23 | CC1OC(c2ncc(C(=O)N(C)c3cccnc3)n2C)OC1C (centres unmarked) [I-1-020] | 100 | 100 | 
0.97 | CN(C(=O)c1cnc(C2OCCS2)n1C)c1cccnc1 (centres unmarked) [I-1-021] | 100 | 100 | 
1.74 | CCCO/N=C/c1ncc(C(=O)N(C)c2cccnc2)n1C [I-1-023] | 100 | 100 | 
1.62 | CN(C(=O)c1cnc(C(=O)NC(C)(C)C)n1C)c1cccnc1 [I-1-030] | 90 | 100 | 
1.26 | CC(C)NC(=O)c1ncc(C(=O)N(C)c2cccnc2)n1C [I-1-032] | 100 | 100 | 
2.07 | CC(C)CO/N=C/c1ncc(C(=O)N(C)c2cccnc2)n1C [I-1-034] | 90 | 100 | 
1.82 | CN(/N=C/c1ncc(C(=O)N(C)c2cccnc2)n1C)C(=O)OC(C)(C)C [I-1-038] | 90 | 100 | 
1.42 | CN(C(=O)c1cnc(C(=O)NCC(F)(F)F)n1C)c1cccnc1 [I-1-048] | 100 | 100 | 
0.87 | CCN(C)C(=O)c1ncc(C(=O)N(C)c2cccnc2)n1C [I-1-053] | 90 | 100 | 
1.39 | CN(C(=O)c1cnc(C(=O)NCC2CC2)n1C)c1cccnc1 [I-1-063] |  | 100 | 
0.93 | COC(=O)CNC(=O)c1ncc(C(=O)N(C)c2cccnc2)n1C [I-1-077] |  | 90 | 
0.67 | CCONC(=O)c1ncc(C(=O)N(C)c2cccnc2)n1C [I-1-078] | 90 |  | 
1.11 | CCN(C)C(=O)c1ncc(C(=O)N(c2cccnc2)C2CC2)n1C [I-1-087] |  |  | 
0.72 | CN(C(=O)c1cnc(C(=O)NS(=O)(=O)C2CC2)n1C)c1cccnc1 [I-1-088] |  |  | 
0.45 | CN(C(=O)c1cnc(C(=O)NCCO)n1C)c1cccnc1 [I-1-089] |  |  | 
